pKi: −log10 of the molar value. Structures can show the parent of a compound that is named as a salt. Where two headings read alike, the source gives them in different places. Marks after values point to notes of the source that are not given here.
Experiments:
[1] = target: T1, 5-HT-1A serotonin receptor (Rattus norvegicus, UniProt P19327); experiment: ex vivo inhibition of 5-HT-1A serotonin receptor binding (3H-8-OH-DPAT, hippocampal membranes); set-up: species or system rats
T1 construct: Hippocampal tissue is dissected and homogenized on ice; from tissue; host or cells: rat hippocampal membrane homogenate
T1 sequence (P19327 1-422): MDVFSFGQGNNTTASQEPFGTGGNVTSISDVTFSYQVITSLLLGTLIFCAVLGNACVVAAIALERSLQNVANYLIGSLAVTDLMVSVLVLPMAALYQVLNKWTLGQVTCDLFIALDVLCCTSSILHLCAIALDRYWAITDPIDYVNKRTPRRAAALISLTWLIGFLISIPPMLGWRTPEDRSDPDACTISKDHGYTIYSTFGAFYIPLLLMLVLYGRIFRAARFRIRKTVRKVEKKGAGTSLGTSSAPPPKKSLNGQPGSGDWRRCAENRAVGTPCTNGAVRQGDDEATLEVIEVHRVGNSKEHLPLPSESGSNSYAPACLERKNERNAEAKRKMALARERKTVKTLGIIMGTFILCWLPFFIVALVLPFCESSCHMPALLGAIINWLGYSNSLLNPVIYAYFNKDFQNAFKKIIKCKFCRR
Description: The assay is carried out as follows: Several groups of rats (4 - 6 rats/group) are injected with test compound or the appropriate vehicle. Thirty minutes later, unless otherwise noted, rats are decapitated and their brains removed. Various brain regions are dissected and rapidly frozen and maintained at -70°C until used.
Hippocampal tissue is dissected and homogenized on ice in 40 vols of buffer (50 mM Tris HCl, pH = 7.7) using a Polytron homogenizer at setting 5 for 3 x 15 sec bursts. The homogenate is then centrifuged at 20,000 rpm (RC5-B; 50,000 g) and the supernatant discarded. The pellet is resuspended in 40 vols of the same buffer and incubated at 37°C for 10 minutes to aid in the removal of endogenous serotonin. The homogenate is then centrifuged (as above) and the supernatant discarded. The pellet is then resuspended in 100 vols of buffer B (50 mM Tris HCl, pH = 7.7 containing 0.1% ascorbate, 10 µM pargyline and 4 mM CaCl₂) and sonicated. An aliquot is taken for protein determination by the Lowry method and the remainder stored frozen at -70°C until used.
The homogenate (50 µl; 0.4-0.6 mg protein/sample) is incubated with 100 µl (1.5-1.8 nM) ³H-8-hydroxy-2-(di-n-propylamino)tetraline in a final volume of 2 ml of buffer for 10 minutes at 37°C. At the end of the incubation, 3 ml of cold buffer A are added to each tube, and the contents rapidly filtered through Whatman GF/B glass filters. The filters are then rapidly washed 2 times with 3 ml of the same buffer, placed in scintillation vials, and shaken for 15 minutes with 10 ml of Hydrofluor (National Diagnostics)scintillation cocktail. The vials are then counted in a Packard 460 CD scintillation counter.
Specific binding is calculated for each of the treatment protocols and is defined as total binding less binding in the presence of excess unlabeled serotonin (1 µM). Specific binding obtained in vehicle-treated rats is compared to that obtained in animals receiving a single or various doses of test compound and expressed as percent of control. […] Linear regression analysis then yields a straight line with 95% confidence limits from which an IC₅₀ can be inversely predicted.

[2] = target: T2, limbic D-2 dopamine receptor (Rattus norvegicus, UniProt P61169); experiment: biochemical; format: binding, rats; conditions: for inhibition at 1 µM: read-out: Limbic D-2 Binding, % inhibition at 1 µM; for pKi: Table 1, 0.3 nM 3H-spiroperidol, rat limbic brain tissue, read-out: Limbic D-2 Binding (KinM)
T2 construct: Limbic brain tissue (nucleus accumbens, septal area, olfactory tubercle) is dissected; from tissue; host or cells: rat limbic brain tissue (nucleus accumbens, septal area, olfactory tubercle) homogenate

[3] = test system: avoidance responding; experiment: conditioned avoidance (discrete trial) test; format: in vivo, Male CD rats; conditions: Rattus norvegicus, po; footnote 1 = AB50 value; read-out: Active at mg/kg (AB50 value)
Description: The antipsychotic activity of the compounds of the invention is assessed via the conditioned avoidance (discrete trial) test. This test has excellent clinical correlation for antipsychotic activity.
The test is carried out as follows: Male CD rats (Charles River) maintained at approximately 400-450 gm body weight are used. Rats trained previously are placed in plexiglass experimental chambers equipped with a response lever, house light, and sonalert. A steel grid floor is wired for presentation of electric shock. Each trial consists of a fifteen-second warning tone (conditioned stimulus), continuing for an additional fifteen seconds accompanied by electric shock, (unconditioned stimulus). The rat can terminate a trial at any point by depression of the response lever. As response during the initial fifteen-second warning tone ends the trial before shock delivery and is considered avoidance response, while a response occurring during shock delivery is an escape response. Trials are presented on a variable interval schedule of two minutes. The session consists of sixty trials. Animals are run two to three times weekly with control sessions always preceding a drug run, and with at least one day intervening, compounds are administered i.p. or p.o. at appropriate pre-treatment times to a minimum of five to six rats at each dose level over a range of doses.
(§1) Response counts are summed over all subjects at a given dose. […] This number is expressed as a percentage of the total trials. Control performance is arbitrarily assigned a value of 100% for avoidance and the dose calculated to produce a 50% block in avoidance responding (AB₅₀) is obtained from a dose-effect regression line fitted by the method of least squares. Potential antipsychotic compounds suppress avoidance responding and increase escape responding.

[4] = test system: avoidance responding; experiment: conditioned avoidance (shelf-jump response) test; format: in vivo, Male CD rats; conditions: i.p., active dose
Description: Another test designed to determine the potential antipsychotic activity of the compounds of the invention is the conditioned avoidance (shelf-jump response) test.
This test is carried out as follows: Male CD rats (Charles River) maintained at approximately 400-450 gm body weight are used. Previously trained rats are placed in plexiglass experimental chambers divided into two sections; a main chamber (10 1/2" x 6 3/4" x 11 7/8" high) and an elevated chamber or shelf (5 7/8" x 6 7/8" x 5 3/4"). A moveable wall, controlled by a motor, determines whether the rat has access to the shelf at any time during the experiment. The experimental chamber also contains a house light and sonalert. A steel grid floor in the main chamber is wired for presentation of electric shock. Each trial consists of a fifteen-second warning tone (conditioned stimulus), continuing for an additional fifteen seconds accompanied by electric shock, (unconditioned stimulus). A response (jumping onto the exposed shelf of the upper chamber) occurring during the initial fifteen-second warning tone is considered an avoidance response, while a response occurring during shock delivery is considered an escape response. Trials are presented on a fixed interval schedule of one minute. The session consists of thirty-six trials. Animals are run twice weekly with control sessions always preceding a drug run, and with at least one day intervening. Compounds are administered i.p. or p.o. at appropriate pre-treatment times to a minimum of five rats at each dose level over a range of doses.
The following experimental parameters are recorded by computer: (1) the number of avoidance responses, (2) the number of escape responses, and (3) the number of trials in which no response occurred.
as §1

[5] = Table 4, 3H-8-OH-DPAT, rat hippocampal tissue, read-out: Inhibition Constant (Ki nm)

T2 sequence (P61169 whole entry): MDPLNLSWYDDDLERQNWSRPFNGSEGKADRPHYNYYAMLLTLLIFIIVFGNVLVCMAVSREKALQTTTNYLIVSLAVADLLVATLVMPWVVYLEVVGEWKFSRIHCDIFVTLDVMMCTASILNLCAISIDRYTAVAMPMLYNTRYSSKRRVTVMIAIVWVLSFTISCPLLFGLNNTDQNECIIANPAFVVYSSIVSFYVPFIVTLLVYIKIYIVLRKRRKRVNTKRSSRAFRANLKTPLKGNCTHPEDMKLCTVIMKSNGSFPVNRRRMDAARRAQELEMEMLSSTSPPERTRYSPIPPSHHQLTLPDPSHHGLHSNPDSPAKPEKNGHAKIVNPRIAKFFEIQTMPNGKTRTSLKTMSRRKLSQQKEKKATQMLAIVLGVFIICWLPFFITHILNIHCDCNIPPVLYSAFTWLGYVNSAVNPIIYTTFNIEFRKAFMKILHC

SMILES	inhibition at 1 µM [1] [%]	inhibition at 1 µM [2] [%]	ED50 [3] [mg/kg]	Active at mg/kg [4]	pKi [1, 5]	pKi [1]	pKi [2]
O=C1C2C3C=CC(C3)C2C(=O)N1CCCCN1CCN(c2cncc(Cl)n2)CC1 (centres unmarked) [Example 13, 3a,4,7,7a,-Tetrahydro-2-[4-[4-(6-chloro-2-pyrazinyl)-1-piperazinyl]butyl]-4,7-methano-1H-isoindole-1,3(2H)-dione hydrochloride hydrate]	74	1	39.7	40 (i.p.) mg/kg	–	–	–
O=C1C2C3C=CC(C4CC34)C2C(=O)N1CCCCN1CCN(c2cnccn2)CC1 (centres unmarked) [Example 24, 4,4a,5,5a,6,6a-Hexahydro-2-[4-[4-(2-pyrazinyl)-1-piperazinyl]butyl]-4,6-ethenocycleprop[f]isoindole-1,3-(2H,3aH)-dione, dihydrochloride, hydrate]	68	38	49.6	40 (i.p.) mg/kg	–	–	–
O=C1C2C3C=CC(CCC3)C2C(=O)N1CCCCN1CCN(c2ncccn2)CC1 (centres unmarked) [Example 21, 4,5,6,7,8,8a-Hexahydro-2-[4-[4-(2-pyrimidinyl)-1-piperazinyl]butyl]-4,8-ethenocyclohepta[c]pyrrole-1,3(2H,3aH)-dione, dihydrochloride, hemihydrate]	–	53	–	40 (i.p.) mg/kg	7.92	–	–
O=C1C2C3C=CC(C4CCC34)C2C(=O)N1CCCCN1CCN(c2ncccn2)CC1 (centres unmarked) [Example 16, 2-[4-[4-(2-Pyrimidinyl)-1-piperazinyl]butyl]-octahydro-4,7-etheno-1H-cyclobut[f]isoindole-1,3-(2H)-dione, dihydrochloride, hydrate]	–	–	47.4	40 (i.p.) mg/kg	–	8.96	7.07
O=C1C2C3C=CC(CCCC3)C2C(=O)N1CCCCN1CCN(c2cncc(Cl)n2)CC1 (centres unmarked) [Example 8, 2-[4-[4-(6-Chloro-2-pyrazinyl)-1-piperazinyl]butyl]octahydro-4,9-etheno-1H-cycloocta[c]pyrrole-1,3(2H)-dione, dihydrochloride, sesquihydrate]	–	–	–	40 (i.p.) mg/kg	6.91	–	6.46
O=C1C2C3C=CC(C4CCC34)C2C(=O)N1CCCCN1CCN(c2cnccn2)CC1 (centres unmarked) [Example 27, 3a,4,4a,5,6,6a,7,7a-Octahydro-2-[4-[4-(2-pyrazinyl)-1-piperazinyl]butyl]-4,7-etheno-1H-cyclobut[f]isoindole-1,3(2H)-dione, dihydrochloride, hemihydrate]	–	41	–	40 (i.p.) mg/kg	7.39	–	–
O=C1C2C3C=CC(C4C=CC43)C2C(=O)N1CCCCN1CCN(c2cnccn2)CC1 (centres unmarked) [Example 23, 3a,4,4a,6a,7,7a-Hexahydro-2-[4-[4-(2-pyrazinyl)-1-piperazinyl]butyl]-4,7-etheno-1H-cyclobut[f]isoindole-1,3-(2H)-dione, fumarate(1:1)]	46	13	–	40 (i.p.) mg/kg	–	–	–
O=C1C2C3CCC(C4CC43)C2C(=O)N1CCCCN1CCN(c2ncccn2)CC1 (centres unmarked) [Example 7, 2-[4-[4-(2-Pyrimidinyl)-1-piperazinyl]butyl]octahydro-4,6-ethanocycloprop[f]isoindole-1,3-(2H, 3aH)-dione, dihydrochloride, dihydrate]	–	–	–	40 (i.p.) mg/kg	7.86	–	6.85
O=C1C2C3C=CC(C4C=CC43)C2C(=O)N1CCCCN1CCN(c2ncccn2)CC1 (centres unmarked) [Example 3, 3a,4,4a,6a,7,7a-Hexahydro-2-[4-[4-(2-pyrimidinyl)-1-piperazinyl]butyl]-4,7-etheno-1H-cyclobut[f]isoindole-1,3(2H)-dione, dihydrochloride, sesquihydrate]	–	–	13.4	40 (i.p.) mg/kg	7.77	–	6.46
O=C1C2C3C=CC(C4CC34)C2C(=O)N1CCCCN1CCN(c2cncc(Cl)n2)CC1 (centres unmarked) [Example 1, 2-[4-[4-(6-Chloro-2-pyrazinyl)-1-piperazinyl]butyl]hexahydro-4,6-ethenocycloprop[f]isoindole-1,3(2H,3aH)-dione, dihydrochloride, sesquihydrate]	–	–	40	40 (i.p.)* mg/kg	6.79	–	6.16
